Measurements reported in US20120328605A1, “COMPOSITIONS AND USES” (priority 2010, published 2012).

Experiments:
[1] = test system: APPSwe/PS1 mice; assay: T-water maze; format: in vivo
Description: Five groups of APPSwe/PS1 mice received one a week for a period of 12 weeks the following treatment: • Gr1: APPSwe/PS1+NaCl 0.9% n(=20), i.p. injections • Gr4: APPSwe/PS1+CRX527 (20 μg/mouse, 130 μl, n=10), i.p. injections • Gr5: […] (50 μg/mouse, 130 μl, n=10), i.p. injections • Gr8 APPSwe/PS1+AS15 ( 1/10th of human dose, 50 μl, n=10), i.m. injections • Gr9: APPSwe/PS1+AS01B ( 1/10th of human dose, 50 μl, n=10), i.m. injections
Mice were tested during the “light on” phase of the day. Behavioral experimenter was blinded to the genetic and treatment status of animals. To assess hippocampal-dependent spatial learning and memory, mice were trained in the T-water maze task. In this paradigm, we evaluate the mouse's ability to remember the spatial location of submerged platform. The T-maze apparatus (length of stem, 64 cm; length of arms, 30 cm; width, 12 cm; height of walls, 16 cm) was made of clear fiberglass and filled with water (23±1° C.) at a height of 12 cm. A platform (11×11 cm) was placed at the end of the target arm and was submerged 1 cm below the surface. The acquisition phase allows to evaluate animals for left-right spatial learning. During the first two trials, platforms were placed on each arms of the maze to test the spontaneous turning preference of the mouse. After these two trials, the least chosen arm was reinforced by the escape platform. The mice were placed in the stem of the T-maze and choose to swim either left or right until they found the submerged platform and escape to it, to a maximum of 60 s. After reaching the platform, the mice remained on it for 20 s and then were immediately placed back in the maze. […] Repeated trials were presented on the same day up to a maximum of 48 trials. A rest period of at least 10-15 min intervened between each block of 10 trials. A mouse was considered to have learned the task when it made no errors in a block of five consecutive trials. […] The number of trials to reach the criterion (five of five correct choices made on consecutive trials) was measured as well as the latency to find the escape platform.

[2] = test system: CD11b+ peripheral blood monocytes; assay: Ex vivo uptake assay of Aβ1-42 by peripheral blood monocytes; format: cell-based, C57BL/6 mice; conditions: AS01B mouse full dose (5 ug per mouse) or CRX601 2 μg i.m.; FIG. 14
Description: Preparation of cells: Peripheral blood was drawn from C57BL/6 mice via cardiac puncture with lithium-heparin as anticoagulant, 24-hours after injection of the adjuvants used herein. Red blood cell lysis was performed twice on pooled blood with Ammonium Chloride-based Buffer (Sigma, Steinheim, Germany) and cells were counted with the EasyCount™ System (Immunicon). […]
FACS analysis: cells were harvested after incubation with fluorescent Aβ peptide with Trypsin/EDTA and cold PBS and washed three times. 500,000 cells were incubated in 96-well plate for 10 min. on ice in the presence of Rat anti-Mouse CD16/CD32 (clone 2.4G2-BD Fc Block™) and further stained for 30 min. with a combination of the following directly conjugated antibodies at their pre-determined optimal concentration: PE-Hamster anti-Mouse CD3 (clone 145-2C11), Rat anti-Mouse CD45R/B220 (clone RA3-6B2), Rat anti-Mouse Ly-6G (clone 1A8), Mouse anti-Mouse NK1.1 (clone PK136), APC-conjugated Rat anti-Mouse CD11b (clone M1/70), PE-Cy7-conjugated Hamster anti-Mouse CD11c (clone HL3), (all from BD PharMingen). […]
Samples were acquired on a flow cytometer (BD FACSCanto II) and data analyzed with the FACSDiva software (BD Biosciences). […]

## CCCCCCCCCCC[C@H](CC(=O)N[C@H]1[C@H](OC[C@H](NC(=O)C[C@@H](CCCCCCCCCCC)OCCCCCCCCCC)C(=O)O)O[C@H](CO)[C@@H](OP(=O)(O)O)[C@@H]1OC(=O)C[C@@H](CCCCCCCCCCC)OCCCCCCCCCC)OCCCCCCCCCC [CRX601]
[1]; Example 21: twelve weekly injections, CRX527, CRX601 20 μg i.p., 3D MPL 50 μg i.p., AS01B 1/10th human dose i.m., FIG. 24
  behaviour as assessed by T water maze testing: significant improvements in behaviour
[1]; Example 22, i.m. 12× weekly: CRX601 2 μg, CRX601 2 ug in AS03, 3D MPL 5 ug, AS01B 1/10 human dose, unpaired t-tests, FIG. 27A
  cognitive functions, T-water maze vs PBS-treated control group: significant improvement of their cognitive functions
[2]
  ex vivo uptake of Aβ42 by monocytes compared to PBS group: higher amount of Aβ42
